Results: ChEMBL document CHEMBL1201862, “PubChem BioAssay data set” (2004)
Active and inactive are the calls of the source.

Tests used:
HeLa = experiment: HeLa cell cytotoxicity, dose response, cytotoxicity control, ATP luminescence, cherry-pick samples (AID 687004); format: functional, cell-based; conditions: Homo sapiens
[1] = HeLa cell cytotoxicity, dose response, cytotoxicity control for MgcRacGAP inhibitor project (AID 624300); format: functional
[2] = molecular target: T1, Rac GTPase-activating protein 1 (Homo sapiens, UniProt Q9H0H5); experiment: MgcRacGAP GTPase-activating activity inhibitors, confirmation, biochemical, ADP Hunter fluorescence, primary and confirmatory (AID 624330); format: functional
T1 sequence (Q9H0H5 whole entry): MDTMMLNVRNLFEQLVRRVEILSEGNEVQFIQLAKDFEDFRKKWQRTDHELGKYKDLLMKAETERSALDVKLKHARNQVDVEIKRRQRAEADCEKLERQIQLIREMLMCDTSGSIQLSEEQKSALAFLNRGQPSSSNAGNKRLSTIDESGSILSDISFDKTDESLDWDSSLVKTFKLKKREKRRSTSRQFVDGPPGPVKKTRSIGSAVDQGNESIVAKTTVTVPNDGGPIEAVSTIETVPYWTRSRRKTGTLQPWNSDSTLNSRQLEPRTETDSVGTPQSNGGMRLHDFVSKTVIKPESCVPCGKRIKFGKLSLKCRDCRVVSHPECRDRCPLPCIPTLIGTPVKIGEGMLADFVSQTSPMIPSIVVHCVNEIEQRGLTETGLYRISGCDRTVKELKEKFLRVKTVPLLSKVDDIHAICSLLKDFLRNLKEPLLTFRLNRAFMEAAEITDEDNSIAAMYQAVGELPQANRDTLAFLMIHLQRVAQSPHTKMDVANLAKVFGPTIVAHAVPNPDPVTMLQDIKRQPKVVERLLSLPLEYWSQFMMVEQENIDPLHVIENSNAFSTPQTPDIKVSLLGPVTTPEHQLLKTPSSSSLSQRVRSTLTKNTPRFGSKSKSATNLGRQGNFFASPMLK

Beta-galactosidase = Beta-galactosidase (Escherichia coli, UniProt Q8VNN2); experiment: Dose response counterscreen for EBI2 assay utilizing the enzyme, b-galactosidase.; format: functional
Major prion protein = Major prion protein (Homo sapiens, UniProt P04156); format: functional, cell-based
cells [3] = experiment: cells
[4] = tested on: Streptococcus sp. 'group A'; experiment: growth inhibition of control SK(-) GAS strain, dose response, counter-screen for streptokinase expression inhibitor project, luminescence, kanamycin, BacTiterGlo, confirmation (AID 1900); format: functional, organism-based
Streptococcus = experiment: Group A Streptococcus viability loss, dose response, counter-screen for streptokinase expression inhibitor project, luminescence, BacTiterGlo (AID 1915); format: functional, organism-based;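 note: potency for reduction of bacterial viability or growth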
[5] = human group III sPLA2 inhibitors, dose response, biochemical, QFRET, IC50 (AID 743457);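 note: green fluorescence rise as the enzyme cleaves BODIPY PC-A2 in liposomes; potency for inhibition of the enzyme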
cells [6] = format: functional, cell-based
[7] = molecular target: T2, Trace amine-associated receptor 1 (Homo sapiens, UniProt Q96RJ0); experiment: Fluorescence-based cell-based high throughput dose response assay to identify agonists of the human trace amine associated receptor 1 (TAAR1).; format: functional
T2 sequence (Q96RJ0 whole entry): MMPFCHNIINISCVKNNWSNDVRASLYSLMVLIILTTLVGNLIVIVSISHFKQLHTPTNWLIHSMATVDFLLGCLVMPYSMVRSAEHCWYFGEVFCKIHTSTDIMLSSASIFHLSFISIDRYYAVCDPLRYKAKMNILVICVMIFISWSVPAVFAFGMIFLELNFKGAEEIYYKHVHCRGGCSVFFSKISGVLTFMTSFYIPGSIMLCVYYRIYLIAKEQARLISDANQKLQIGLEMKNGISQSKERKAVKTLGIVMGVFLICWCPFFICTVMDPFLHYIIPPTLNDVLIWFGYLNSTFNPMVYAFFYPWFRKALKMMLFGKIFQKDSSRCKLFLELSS

[8] = molecular target: T2, Trace amine-associated receptor 1; experiment: Counterscreen for agonists of the human trace amine associated receptor 1 (hTAAR1): Fluorescence-based cell-based high throughput dose response assay to identify hTAAR1 agonist that also desensitize TAAR1 receptor response.; format: functional
cells [9] = format: functional, cell-based; remark: listed apart in the source
[10] = molecular target: Mitogen-activated protein kinase 10 (Homo sapiens, UniProt P53779); experiment: Dose response biochemical screening assay for inhibitors of c-Jun N-Terminal Kinase 3 (JNK3). [Related pubchem assays: 746 ]
[11] = inhibitors of intracellular T. cruzi replication, confirmation, NIH3T3 host cells, beta-gal luminescence (AID 2044); format: functional, cell-based;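 note: intracellular parasites grown in NIH/3T3 mouse fibroblasts as host cells; luminescent beta-galactosidase reporter signal from transgenic T. cruzi replicating inside host cells; inhibitors lower the luminescence signal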
[12] = cytotoxicity toward NIH3T3 fibroblasts, dose response, counter-screen, cell-based, ATP luminescence, mouse fibroblasts (AID 2010); format: functional;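 note: cells exposed to compound for about 90 hours before reading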
[13] = molecular target: T3, Corticotropin-releasing factor receptor 2/Corticotropin-releasing factor-binding protein (Homo sapiens, UniProt P24387+Q13324); experiment: Dose Response confirmation of uHTS hits for small molecule antagonists of the CRF-binding protein and CRF-R2 receptor complex.; format: functional; conditions: read-out: IC50_Mean
T3 sequence (Q13324 whole entry): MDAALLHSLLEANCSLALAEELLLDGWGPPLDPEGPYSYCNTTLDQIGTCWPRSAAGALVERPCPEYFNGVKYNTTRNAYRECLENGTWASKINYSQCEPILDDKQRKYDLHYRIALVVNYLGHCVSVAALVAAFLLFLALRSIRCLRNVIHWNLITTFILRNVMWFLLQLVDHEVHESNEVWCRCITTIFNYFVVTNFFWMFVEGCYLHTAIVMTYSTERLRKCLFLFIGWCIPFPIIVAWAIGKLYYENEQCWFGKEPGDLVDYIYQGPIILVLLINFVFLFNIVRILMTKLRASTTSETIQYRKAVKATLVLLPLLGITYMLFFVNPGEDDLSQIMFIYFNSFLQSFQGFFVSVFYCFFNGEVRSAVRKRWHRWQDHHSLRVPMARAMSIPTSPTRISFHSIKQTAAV
T3 sequence (P24387 whole entry): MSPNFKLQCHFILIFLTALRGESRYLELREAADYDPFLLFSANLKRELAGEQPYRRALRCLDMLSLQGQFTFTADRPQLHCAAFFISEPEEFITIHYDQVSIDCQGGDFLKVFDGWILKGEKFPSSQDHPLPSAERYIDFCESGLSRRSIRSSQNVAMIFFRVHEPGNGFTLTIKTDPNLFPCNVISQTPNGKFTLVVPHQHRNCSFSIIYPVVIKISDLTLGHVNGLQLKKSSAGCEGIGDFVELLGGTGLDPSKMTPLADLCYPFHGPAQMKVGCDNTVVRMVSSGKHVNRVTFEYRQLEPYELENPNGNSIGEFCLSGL

[14] = molecular target: T3, Corticotropin-releasing factor receptor 2/Corticotropin-releasing factor-binding protein; experiment: activators of CRF receptor 2 with binding protein – uHTS hits, confirmation (AID 602473); format: functional; conditions: read-out: EC50_Mean
[15] = molecular target: DNA repair protein RAD52 homolog (Homo sapiens, UniProt P43351); format: functional, biochemical
[16] = NIH/3T3 fibroblast cytotoxicity, dose response, cytotoxicity control for T. cruzi growth inhibitor project, cell-based, cherry-pick samples, set 2 (AID 651817); format: functional; conditions: NIH3T3
[17] = intracellular Trypanosoma cruzi inhibitors in host cells – cell-based, plate reader, cherry-pick samples, set 3, dose response (AID 651818); format: functional;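 note: compounds incubated with infected cells for about four days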
[18] = Luminescence Cell-Based Dose Response HTS to Identify Activators of Luciferase Translation or Activity in H4 […] Cells. [Related pubchem assays: 1829 (Project Summary), 1814 (Primary HTS)]; format: functional
H4 = experiment: Luminescence Cell-Based Dose Response HTS to Identify Activators of 5'UTR Stem-Loop Driven Prion Protein mRNA Translation in H4 Neuroglioblastoma Cells. [Related pubchem assays: 1829 (Project Summary), 1814 (Primary HTS)]; format: functional; conditions: Homo sapiens
[19] = molecular target: T4, Heat shock factor protein 1 (Mus musculus, UniProt P38532); experiment: inhibition of MG132-induced HSE-luciferase signal, confirmation, cell-based, NIH3T3, luminescence, dose retest (AID 2382); format: functional;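 note: NIH3T3 fibroblasts with HSF1-driven luciferase reporter stressed by proteasome inhibitor MG132; luminescence from HSF1-driven luciferase expression after 8 hours of MG132 stress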
T4 sequence (P38532 whole entry): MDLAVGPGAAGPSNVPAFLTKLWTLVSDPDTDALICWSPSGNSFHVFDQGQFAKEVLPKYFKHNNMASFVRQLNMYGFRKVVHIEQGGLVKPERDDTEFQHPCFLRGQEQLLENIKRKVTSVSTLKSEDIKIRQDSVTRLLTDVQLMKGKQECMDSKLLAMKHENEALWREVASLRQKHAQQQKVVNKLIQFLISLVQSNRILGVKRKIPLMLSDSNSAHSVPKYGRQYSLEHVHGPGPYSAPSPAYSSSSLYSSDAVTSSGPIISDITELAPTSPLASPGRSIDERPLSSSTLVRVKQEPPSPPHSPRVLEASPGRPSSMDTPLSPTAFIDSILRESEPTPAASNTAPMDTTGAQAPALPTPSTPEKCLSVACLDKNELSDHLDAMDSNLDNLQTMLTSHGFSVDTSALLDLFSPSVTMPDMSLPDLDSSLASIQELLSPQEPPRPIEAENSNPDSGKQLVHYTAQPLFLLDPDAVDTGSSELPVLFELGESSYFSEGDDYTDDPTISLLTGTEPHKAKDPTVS

[20] = THP-1 cell cytotoxicity, dose response, cytotoxicity control for non-replicating M. tuberculosis project (AID 489025); format: functional
[21] = HepG2 cell cytotoxicity, dose response, cytotoxicity control for non-replicating M. tuberculosis project (AID 489018); format: functional; conditions: Mycobacterium tuberculosis
[22] = Vero E6 cell cytotoxicity, dose response, cytotoxicity control for non-replicating M. tuberculosis project, secondary assay (AID 492998); format: functional, VeroE6; conditions: Vero C1008
HEK293 = experiment: cells; format: functional, cell-based; conditions: Homo sapiens
[23] = molecular target: T5, Nuclear receptor subfamily 0 group B member 1 (Homo sapiens, UniProt P51843); experiment: Luminescence-based cell-based high throughput dose response assay for inhibitors of the orphan nuclear receptor subfamily 0, group B, member 1 (DAX1; NR0B1). [Related pubchem assays (depositor defined):AID504766, AID504790]; format: functional
T5 sequence (P51843 whole entry): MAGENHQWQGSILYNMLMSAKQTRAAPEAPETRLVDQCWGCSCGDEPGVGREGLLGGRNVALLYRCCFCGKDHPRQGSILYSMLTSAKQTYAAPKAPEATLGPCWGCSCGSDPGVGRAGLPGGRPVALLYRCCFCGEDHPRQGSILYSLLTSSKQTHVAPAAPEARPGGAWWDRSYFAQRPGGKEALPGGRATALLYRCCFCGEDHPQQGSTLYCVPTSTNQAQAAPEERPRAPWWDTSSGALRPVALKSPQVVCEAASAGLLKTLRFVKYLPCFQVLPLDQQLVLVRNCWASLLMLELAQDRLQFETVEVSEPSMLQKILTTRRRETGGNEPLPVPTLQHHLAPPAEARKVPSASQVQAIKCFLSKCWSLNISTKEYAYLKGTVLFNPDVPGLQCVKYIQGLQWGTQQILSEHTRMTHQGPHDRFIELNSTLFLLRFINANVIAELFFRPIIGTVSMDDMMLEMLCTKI

[24] = HepG2 cell cytotoxicity, dose response, cytotoxicity control, ATP luminescence, cherry-pick, activator set 2 (AID 1053143); format: functional, cell-based
Cytochrome P450 2D6 = Cytochrome P450 2D6 (Homo sapiens, UniProt P10635);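 note: CYP2D6 member of a cytochrome P450 panel assay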

## Cc1ccc2cc(NC(=O)c3ccccc3)ccc2n1
HeLa
  AC50: > 52 µM (inactive)

## CC1CC(=O)N(c2ccc(NCCc3ccc(O)cc3)c([N+](=O)[O-])c2)C1=O (centres undefined)
[1]
  CC50: 100 µM (active)
[2]
  IC50: 52.9 µM (active)

## COc1ccc(-c2cn(-c3ccc(OC)cc3)c(S)n2)cc1
Beta-galactosidase
  IC50: > 80 µM (inactive)

## Cn1c(N2CCC(C(N)=O)CC2)nc2c1c(=O)n(Cc1cccc(Br)c1)c(=O)n2C
Major prion protein
  IC50: 8.38 µM (active)
Cells [3]
  IC50: > 138 µM (inactive)

## COc1ccc(/C=C/C(=O)NC(=S)NNC(=O)c2ccco2)cc1
[4]
  EC50: 1.72 µM (active)
Streptococcus
  EC50: 3.29 µM (active)
[5]
  IC50: 34.9 µM (inactive)

## CC1(C)CC(=O)C(C(=O)/C=C/NCCc2ccccc2)C(=O)C1
Cells [6]
  IC50: > 29.9 µM (inactive)
[7]
  EC50: 1.46 µM (active)
[8]
  IC50: 7.8 µM (active)
Cells [9]
  EC50: > 29.9 µM (inactive)

## COC(=O)c1sccc1NC(=O)C1CC=CCC1C(=O)O (centres undefined)
[10]
  IC50: 19.8 µM (not active)
Major prion protein
  IC50: 2.48 µM (active)
Cells [3]
  IC50: > 138 µM (inactive)

## Cc1ccc(S(=O)(=O)N2CCN(C(=O)COc3ccc(Br)cc3)CC2)cc1
Beta-galactosidase
  IC50: > 80 µM (inactive)

## Fc1ccc(-n2c(S)nnc2-c2ccc3c(c2)OCO3)cc1Cl
[5]
  IC50: > 122 µM (inactive)

## COCc1cc([S+]([O-])c2ccc(Cl)cc2)nc(C)n1 (centres undefined)
[11]
  EC50: 1.78 µM (active)
[12]
  EC50: > 60 µM (not active)
[1]
  CC50: 95 µM (active)
[2]
  IC50: 87.8 µM (active)

## Cc1ccc(-c2c[n+](CC(=O)Nc3nc(-c4ccc(F)cc4)cs3)c3n2CCC3)cc1
[13]
  IC50: > 47.1 µM (inactive)
[14]
  EC50: > 53 µM (inactive)
[15]
  AC50: 11.2 µM (active)

## C[C@H](CO)N1C[C@H](C)[C@@H](CN(C)Cc2ccccc2)Oc2c(NC(=O)c3ccncc3)cccc2C1=O
[16]
  AC50: 39 µM (inactive)
[17]
  AC50: 0.179 µM (active)

## Nc1ccccc1C(=O)NNC1=C(C(=O)C(F)(F)F)CCC1
[18]
  EC50: 39.2 µM (active)
H4
  EC50: 21.7 µM (active)
[19]
  EC50: 36.6 µM (active)
[20]
  CC50: 14.1 µM (active)
[21]
  CC50: > 20 µM (active)
[22]
  CC50: > 20 µM (active)
HEK293
  IC50: > 2.5 µM (active)
[23]
  IC50: > 67.5 µM (inactive)
[24]
  AC50: 26 µM (active)

## C[C@H](CO)N1C[C@H](C)[C@H](CN(C)S(=O)(=O)c2ccc(Cl)cc2)Oc2c(NC(=O)c3nc4ccccc4s3)cccc2C1=O
[16]
  AC50: 21.9 µM (active)

## CO[C@H]1CN(C)C(=O)c2cc(NS(=O)(=O)CC(F)(F)F)ccc2OC[C@@H](C)N(Cc2cccnc2)C[C@@H]1C
HeLa
  AC50: 21.5 µM (active)

## Cc1ccc2c(c1)-c1nc3ccccc3cc1/C2=N/C1CCCCC1
[24]
  AC50: 22.2 µM (active)

## c1ccc2cc(CC3=NCCN3)ccc2c1
Cells [6]
  IC50: > 30 µM (inactive)
[7]
  EC50: 0.322 µM (active)
[8]
  IC50: 3.65 µM (active)
Cells [9]
  EC50: > 30 µM (inactive)
Cytochrome P450 2D6
  AC50: 39.8 µM (inconclusive)
